Reference: ChEMBL document CHEMBL1201862, “PubChem BioAssay data set” (2004)
Structures can show the parent of a compound that is named as a salt.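 Briefly, cells in 96-well plates were exposed to five compound concentrations for 48 h, and endpoints were estimated by linear interpolation. GI50 is the concentration that inhibits growth by half.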 Active and inactive are the calls of the source. No stated cut-off is given here; in the data, active = GI50 up to about 1.1 µM and inactive = higher.

Columns and labels:
Assay in all cases: NCI tumour cell line growth inhibition, 48 h
CCRF-CEM = system: CCRF-CEM
COLO 205 = system: COLO 205
EKVX = system: EKVX
HL-60 = system: HL-60
HOP-92 = system: HOP-92
HT-29 = system: HT-29
LOX IMVI = system: LOX IMVI
MOLT-4 = system: MOLT-4
Malme-3M = system: Malme-3M
NCI-H226 = system: NCI-H226
NCI-H23 = system: NCI-H23
NCI-H460 = system: NCI-H460
NCI-H522 = system: NCI-H522
OVCAR-4 = system: OVCAR-4
OVCAR-8 = system: OVCAR-8
RPMI-8226 = system: RPMI-8226
SNB-75 = system: SNB-75
TK-10 = system: TK-10
UO-31 = system: UO-31
BT-549 = system: BT-549

| SMILES | GI50 (CCRF-CEM) | GI50 (COLO 205) | GI50 (EKVX) | GI50 (HL-60) | GI50 (HOP-92) | GI50 (HT-29) | GI50 (LOX IMVI) | GI50 (MOLT-4) | GI50 (Malme-3M) | GI50 (NCI-H226) | GI50 (NCI-H23) | GI50 (NCI-H460) | GI50 (NCI-H522) | GI50 (OVCAR-4) | GI50 (OVCAR-8) | GI50 (RPMI-8226) | GI50 (SNB-75) | GI50 (TK-10) | GI50 (UO-31) | GI50 (BT-549) |
| --- | --- | --- | --- | --- | --- | --- | --- | --- | --- | --- | --- | --- | --- | --- | --- | --- | --- | --- | --- | --- |
| COc1cc(C2c3cc4c(cc3[C@@H](OCCN(C)C)C3COC(=O)[C@H]23)OCO4)cc(OC)c1O (stereo partly specified) | 0.0419 µM (active) | 2.85 µM (inactive) | 1.65 µM (inactive) | 0.036 µM (active) | 0.196 µM (active) | 0.902 µM (active) | 0.145 µM (active) | 0.0165 µM (active) | 0.388 µM (active) | 0.0394 µM (active) | 0.237 µM (active) | 0.0127 µM (active) | 0.111 µM (active) | 2.07 µM (inactive) | 0.583 µM (active) | 0.0472 µM (active) | 0.769 µM (active) | 1.58 µM (inactive) | 0.519 µM (active) | – |
| O=C(OCCN1CCCCCC1)C(c1ccsc1)C1CCCCC1 (stereo unspecified) [CETIEDIL CITRATE] | 15.7 µM (inactive) | 10.5 µM (inactive) | 17.1 µM (inactive) | 24.5 µM (inactive) | 13.9 µM (inactive) | 11.9 µM (inactive) | 17.1 µM (inactive) | 21.4 µM (inactive) | 14.4 µM (inactive) | – | 18.5 µM (inactive) | 16.2 µM (inactive) | – | – | 18.6 µM (inactive) | 13.5 µM (inactive) | 16.1 µM (inactive) | 16 µM (inactive) | 13.3 µM (inactive) | 15.3 µM (inactive) |
| CCOC(=O)C1CCCCc2sc(N)c(C#N)c21 (stereo unspecified) | – | > 100 µM (inactive) | > 100 µM (inactive) | > 100 µM (inactive) | > 100 µM (inactive) | > 100 µM (inactive) | – | > 100 µM (inactive) | 71.1 µM (inactive) | > 100 µM (inactive) | > 100 µM (inactive) | > 100 µM (inactive) | – | – | > 100 µM (inactive) | > 100 µM (inactive) | > 100 µM (inactive) | > 100 µM (inactive) | > 100 µM (inactive) | > 100 µM (inactive) |
| CN(Cc1cnc2nc(N)nc(N)c2n1)c1ccc(C(=O)NC(CO)CCCO)cc1 (stereo unspecified) | > 100 µM (inactive) | > 100 µM (inactive) | > 100 µM (inactive) | > 100 µM (inactive) | – | > 100 µM (inactive) | > 100 µM (inactive) | > 100 µM (inactive) | > 100 µM (inactive) | > 100 µM (inactive) | > 100 µM (inactive) | > 100 µM (inactive) | – | – | > 100 µM (inactive) | > 100 µM (inactive) | > 100 µM (inactive) | > 100 µM (inactive) | > 100 µM (inactive) | > 100 µM (inactive) |
| COc1cc(COC(=O)N2CCC2C(=O)O)c([N+](=O)[O-])cc1OC (stereo unspecified) | > 100 µM (inactive) | > 100 µM (inactive) | > 100 µM (inactive) | > 100 µM (inactive) | > 100 µM (inactive) | > 100 µM (inactive) | – | > 100 µM (inactive) | > 100 µM (inactive) | > 100 µM (inactive) | > 100 µM (inactive) | > 100 µM (inactive) | – | – | > 100 µM (inactive) | > 100 µM (inactive) | > 100 µM (inactive) | > 100 µM (inactive) | > 100 µM (inactive) | > 100 µM (inactive) |
| C/C(=N\O)c1sc(-n2nc(-c3ccccc3)cc2-c2ccccc2)nc1C | 12.3 µM (inactive) | > 10 µM (inactive) | 6.35 µM (inactive) | 14 µM (inactive) | > 10 µM (inactive) | 13 µM (inactive) | 12.4 µM (inactive) | 11.1 µM (inactive) | 16.9 µM (inactive) | 12.3 µM (inactive) | 8.15 µM (inactive) | 15.6 µM (inactive) | 12.1 µM (inactive) | > 10 µM (inactive) | 12 µM (inactive) | 12.2 µM (inactive) | 14.6 µM (inactive) | > 10 µM (inactive) | 10.6 µM (inactive) | – |
| CCOC(=O)/C=C1\Nc2ccccc2C12CCc1c([nH]c3ccccc13)C2C(=O)OCC (stereo unspecified) | 29 µM (inactive) | 4.66 µM (inactive) | 18.8 µM (inactive) | 26.1 µM (inactive) | – | 9.08 µM (inactive) | 39.2 µM (inactive) | 8.79 µM (inactive) | 10.3 µM (inactive) | – | 43.5 µM (inactive) | 12 µM (inactive) | 21.5 µM (inactive) | 16.3 µM (inactive) | 88.7 µM (inactive) | 7.52 µM (inactive) | – | 23.8 µM (inactive) | 21.3 µM (inactive) | 52.2 µM (inactive) |
| COc1cc(C(c2ccc3c(c2)OCO3)C2SCCCS2)cc(OC)c1OC (stereo unspecified) | 1.49 µM (inactive) | 1.63 µM (inactive) | 2.79 µM (inactive) | – | – | 1.89 µM (inactive) | – | 2.87 µM (inactive) | 3.36 µM (inactive) | 2.7 µM (inactive) | 3.76 µM (inactive) | 1.58 µM (inactive) | 2.11 µM (inactive) | 6.65 µM (inactive) | 4.71 µM (inactive) | 3.27 µM (inactive) | 2.21 µM (inactive) | 5.2 µM (inactive) | 6.22 µM (inactive) | 8.79 µM (inactive) |
| C=C[C@]1(C)CCC2=C(CCC3C2(C)CCC[C@@]3(C)COC(C)=O)C1 (stereo partly specified) | 17.6 µM (inactive) | 16.3 µM (inactive) | 19.5 µM (inactive) | 19.7 µM (inactive) | 19.5 µM (inactive) | 18.7 µM (inactive) | 18.6 µM (inactive) | 14.7 µM (inactive) | 25 µM (inactive) | 18.2 µM (inactive) | 22 µM (inactive) | 17.6 µM (inactive) | 15.4 µM (inactive) | 19.7 µM (inactive) | 19.1 µM (inactive) | 17.1 µM (inactive) | 18.1 µM (inactive) | 25.8 µM (inactive) | 18.8 µM (inactive) | – |
| Cn1c(=S)sc2nc3ccccc3n2c1=S | 3.52 µM (inactive) | 9.51 µM (inactive) | 17.3 µM (inactive) | 2.49 µM (inactive) | 8.93 µM (inactive) | 5.81 µM (inactive) | 5.97 µM (inactive) | 5.36 µM (inactive) | 13.9 µM (inactive) | 21.4 µM (inactive) | 12.4 µM (inactive) | 9.86 µM (inactive) | 4.21 µM (inactive) | 16 µM (inactive) | 14.3 µM (inactive) | 3.78 µM (inactive) | 16.5 µM (inactive) | 21.2 µM (inactive) | 5.55 µM (inactive) | – |
| c1ccc2c(-c3ccnc(-c4c[nH]c5ccccc45)n3)c[nH]c2c1 | 1.51 µM (inactive) | 5.45 µM (inactive) | 6.4 µM (inactive) | 2.29 µM (inactive) | 1.7 µM (inactive) | 2.7 µM (inactive) | 2.82 µM (inactive) | 1.87 µM (inactive) | – | – | – | 2.87 µM (inactive) | – | 8.69 µM (inactive) | 5.93 µM (inactive) | 1.91 µM (inactive) | – | 8.67 µM (inactive) | 3.98 µM (inactive) | > 100 µM (inactive) |
| COc1c(Cl)c2c(c(OC)c1OC)-c1ccc(OC)c(=O)c(Cl)c1C(NC(C)=O)CC2 (stereo unspecified) | 0.305 µM (active) | 0.194 µM (active) | 7.35 µM (inactive) | 0.169 µM (active) | 0.117 µM (active) | 0.156 µM (active) | 0.296 µM (active) | 0.345 µM (active) | 0.155 µM (active) | 0.316 µM (active) | 0.269 µM (active) | 0.134 µM (active) | 0.148 µM (active) | 27.1 µM (inactive) | 0.353 µM (active) | 0.337 µM (active) | 0.1 µM (active) | 0.69 µM (active) | 3.63 µM (inactive) | – |
